Test results: patent publication US20220386635A1, “NITRITE REPLACEMENT (CURING AIDS) CONTAINING NATURAL INGREDIENTS” (KEMIN INDUSTRIES, INC., priority 2021, published 2022)
Where “and” joins values, the source holds several entries; their conditions need not be identical. Equal values may be shown once. Read-outs that look alike come from different tables or passages of the source. Marks after values point to notes of the source that are not given here.

How the values were obtained:
[1] = Color evaluation (L*a*b*, C*, hue) of sausages with black carrot extract, Example 2; conditions: 50 days at 7° C., dark or illuminated last 72 h
Listeria monocytogenes [2] = test: Listeria monocytogenes challenge test, Example 5 experiment 1; format: cell-based
C. botulinum spores = format: cell-based, Clostridium botulinum
[3] = system: C. botulinum spores (Type A: NCTC 7272, Type E: LFMFP-CB 707 and Type E: LFMFP-CB 666); format: cell-based, Clostridium botulinum; conditions: 7° C.; for Anaerobic count: Blend 0.4%, Repl 1 and Repl 2
Listeria monocytogenes [4] = test: Listeria monocytogenes challenge study, Example 6; format: cell-based; conditions: after 3 weeks at 7° C.; inoculum 2.6 log10CFU/g
[5] = Lipid oxidation (TBARS) in cooked sausages; conditions: 7° C., shelf life of 8 weeks; threshold for off-odor 0.5 ppm
[6] = Physico-chemical parameters of low salt emulsified cooked pork sausages, Example 6
botulinum toxin = system: botulinum toxin; parameters: species or system Clostridium botulinum
[7] = low salt (1.2%) sausage, dosages per Table 23
[8] = low salt sausage, dosages per Table 23

O=NO [Positive control, sodium nitrite]
Color stability during storage [1]: faded drastically
L. monocytogenes count (Listeria monocytogenes [2]; after 8 weeks at 7° C., inoculum 300 CFU/g): 7 log10CFU/g
time to 1 log increase of L. monocytogenes (Listeria monocytogenes [2]; positive control with nitrite, 7° C.): 14 days
Clostridium botulinum outgrowth (C. botulinum spores; 7° C., 8 weeks, significant growth = >0.5 log10CFU/g): no growth of C. botulinum
Anaerobic count (average ± standard deviation, n = 2) (C. botulinum spores; storage time 0 days at 7° C., dosages per Table 23): 3.7 ± 0.1 log10CFU/g
Anaerobic count (average ± standard deviation, n = 2) (C. botulinum spores; storage time 14 days at 7° C., * significant outgrowth (>0.5 log10CFU/g) in at least one replicate): 2.3 ± 0.3 log10CFU/g
Anaerobic count (average ± standard deviation, n = 2) (C. botulinum spores; storage time 24 days at 7° C., * significant outgrowth (>0.5 log10CFU/g) in at least one replicate): 2.4 ± 0.0 log10CFU/g
Anaerobic count (average ± standard deviation, n = 2) (C. botulinum spores; storage time 42 days at 7° C., * significant outgrowth (>0.5 log10CFU/g) in at least one replicate): 2.2 ± 0.1 log10CFU/g
Anaerobic count (average ± standard deviation, n = 2) (C. botulinum spores; storage time 56 days at 7° C., * significant outgrowth (>0.5 log10CFU/g) in at least one replicate): 2.2 ± 0.0 log10CFU/g
growth of C. botulinum ([3]; 8 weeks, 0.4% of the invented blend): no growth
Anaerobic count ([3]; storage time 0 days): 3.08 log10CFU/g and 2.73 log10CFU/g
Anaerobic count ([3]; storage time 14 days): 2.75 log10CFU/g and 2.70 log10CFU/g
Anaerobic count ([3]; storage time 28 days): 2.61 log10CFU/g and 2.62 log10CFU/g
Anaerobic count ([3]; storage time 42 days): 2.67 log10CFU/g and 2.46 log10CFU/g
Anaerobic count ([3]; storage time 56 days): 2.49 log10CFU/g and 2.43 log10CFU/g
L. monocytogenes count (Listeria monocytogenes [4]): more than 7 log10CFU/g
Lipid oxidation (TBARS values) [5]: maintain low TBARS values
aw ([6]; 25° C., low salt sausage, dosages per Table 23): 0.978
Salt content ([6]; calculated based on sodium content, low salt sausage): 1.55%
Salt content in aqueous phase ([6]; calculated from salt content and moisture content): 2.9%
pH of cooked meat [6, 7]: 6.21^a
pH of meat batter [6, 7]: 5.87^ab
Acetic acid content [6, 8]: 0.008%
Moisture content [6, 8]: 52.3%
Number of samples in which botulinum toxin was detected to total analyzed samples (botulinum toxin): 0/2
